pIC50: −log10 of the molar value.
Key:
Assay type in all cases: biochemical
MMP-13 = molecular target: T1, MMP-13 (Homo sapiens, UniProt P45452); assay: In vitro MMP-13 inhibition test; conditions: human MMP-13
T1 construct: purchased R&D Systems 511-MP
Method in brief: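 APMA-activated recombinant enzyme (e.g. 0.1 nM final) was tested with compounds (e.g. 1 nM–30 µM, DMSO) in 50 mM Tris/HCl pH 7.5, 10 mM CaCl2, 150 mM NaCl, 0.05% Brij-35. Mca-PLGL-Dpa(Dnp)-AR-NH2 was the substrate (e.g. 10 µM). Fluorescence (ex 320/em 410 nm) was followed e.g. 120 min at 32 °C, and IC50 was read at 50% signal.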

MMP-16 = molecular target: T2, MMP-16 (Homo sapiens, UniProt P51512); assay: In vitro MMP-16 inhibition test; conditions: human MMP-16
T2 construct: purchased R&D Systems 1785-MP
T2 sequence (P51512 120-564 limits assumed): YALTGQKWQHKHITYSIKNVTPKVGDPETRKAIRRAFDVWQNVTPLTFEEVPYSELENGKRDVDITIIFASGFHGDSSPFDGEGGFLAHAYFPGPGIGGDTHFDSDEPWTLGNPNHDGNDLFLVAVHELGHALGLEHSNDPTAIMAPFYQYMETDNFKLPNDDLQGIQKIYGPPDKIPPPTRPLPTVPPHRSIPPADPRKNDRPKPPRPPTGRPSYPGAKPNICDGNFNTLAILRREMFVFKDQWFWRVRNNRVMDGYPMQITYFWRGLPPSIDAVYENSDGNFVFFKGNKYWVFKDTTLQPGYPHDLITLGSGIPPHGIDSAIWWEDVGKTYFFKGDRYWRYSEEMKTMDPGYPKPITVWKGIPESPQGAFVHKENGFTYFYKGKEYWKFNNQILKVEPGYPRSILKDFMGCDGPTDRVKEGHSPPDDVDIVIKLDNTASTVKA
Method in brief: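 Furin-activated recombinant MMP-16 (e.g. 1 nM final) with compound (e.g. 1 nM–30 μM, DMSO) in 50 mM Tris/HCl pH 7.5, 10 mM CaCl2, 150 mM NaCl, 0.05% Brij-35. Reaction started with quenched Mca-Lys-Pro-Leu-Gly-Leu-Dpa(Dnp)-Ala-Arg-NH2 (e.g. 5 μM) and read by fluorescence (ex 320/em 410 nm), e.g. over 120 min at 32 °C. IC50 taken at 50% signal.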

MMP-1 = molecular target: T3, MMP-1 (Homo sapiens, UniProt P03956); assay: In vitro MMP-1 inhibition test; conditions: human MMP-1
T3 construct: purchased R&D Systems 901-MP
T3 sequence (P03956 100-469): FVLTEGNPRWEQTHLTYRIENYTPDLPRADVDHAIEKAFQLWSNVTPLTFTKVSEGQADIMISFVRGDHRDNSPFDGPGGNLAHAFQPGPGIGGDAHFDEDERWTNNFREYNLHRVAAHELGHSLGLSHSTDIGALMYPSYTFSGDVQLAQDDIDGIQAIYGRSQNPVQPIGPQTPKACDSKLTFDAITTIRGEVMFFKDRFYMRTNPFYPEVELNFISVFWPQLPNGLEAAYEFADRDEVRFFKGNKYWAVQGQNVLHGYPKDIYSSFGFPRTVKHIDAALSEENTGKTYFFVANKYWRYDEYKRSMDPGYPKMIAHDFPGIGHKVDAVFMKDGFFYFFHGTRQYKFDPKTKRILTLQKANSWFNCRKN
Method in brief: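 Recombinant enzyme was APMA-activated and used at e.g. 2 nM final in 50 mM Tris/HCl pH 7.5, 10 mM CaCl2, 150 mM NaCl, 0.05% Brij-35. Reaction was started with quenched Mca-Pro-Leu-Gly-Leu-Dpa(Dnp)-Ala-Arg-NH2 (e.g. 10 μM final), and fluorescence (ex 320/em 410 nm) was followed e.g. over 120 min at 32 °C. IC50 is the concentration giving 50% signal.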

MMP-3 = molecular target: T4, MMP-3 (Homo sapiens, UniProt P08254); assay: In vitro MMP-3 inhibition test; conditions: human MMP-3
T4 construct: purchased R&D Systems 513-MP
T4 sequence (P08254 100-477): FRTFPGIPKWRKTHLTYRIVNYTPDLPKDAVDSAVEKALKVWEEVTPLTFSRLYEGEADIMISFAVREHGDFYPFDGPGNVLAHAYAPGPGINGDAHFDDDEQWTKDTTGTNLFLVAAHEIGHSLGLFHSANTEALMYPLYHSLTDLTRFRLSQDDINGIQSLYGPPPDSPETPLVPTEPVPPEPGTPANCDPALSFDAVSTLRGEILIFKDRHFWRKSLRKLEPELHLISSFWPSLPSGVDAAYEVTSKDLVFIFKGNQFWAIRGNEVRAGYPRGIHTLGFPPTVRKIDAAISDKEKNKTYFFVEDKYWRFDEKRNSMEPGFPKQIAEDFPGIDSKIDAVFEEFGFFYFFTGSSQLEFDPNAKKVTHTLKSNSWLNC
Method in brief: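 APMA-activated recombinant MMP-3 (e.g. 2 nM final) with compound in Tris/HCl pH 7.5, CaCl2, NaCl, Brij-35; reaction started with quenched Mca/Dnp peptide substrate (e.g. 10 μM final). Fluorescence (ex 320/em 410 nm) followed e.g. 120 min at 32 °C; IC50 is concentration giving 50% signal.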

CCCCCOc1ccc2cc(C(=O)CC(CCn3nnc4ccccc4c3=O)C(=O)O)sc2c1 (racemic) [Example 118, (+/−)-4-Oxo-2-[2-(4-oxo-1,2,3-benzotriazin-3(4H)-yl)ethyl]-4-[6-(pentyloxy)-1-benzothiophen-2-yl]butanoic acid]
pIC50 (MMP-13): 5.96
pIC50 (MMP-16): < 4.40
pIC50 (MMP-1): < 4.40
pIC50 (MMP-3): 4.80

O=C(CC(CCn1nnc2ccccc2c1=O)C(=O)O)c1cc2cc(OCCC3CCCC3)ccc2o1 (racemic) [Example 7, (+/−)-4-[5-(2-Cyclopentylethoxy)-1-benzofur-2-yl]-4-oxo-2-[2-(4-oxo-1,2,3-benzotriazin-3(4H)-yl)ethyl]butanoic acid]
pIC50 (MMP-13): 5.30
pIC50 (MMP-16): < 4.40
pIC50 (MMP-1): < 4.40
pIC50 (MMP-3): 4.57

O=C(CC(CCn1nnc2ccccc2c1=O)C(=O)O)c1cc2ccc(OCCCC3CCCCC3)cc2o1 (racemic) [Example 71, (+/−)-4-[6-(3-Cyclohexylpropoxy)-1-benzofur-2-yl]-4-oxo-2-[2-(4-oxo-1,2,3-benzotriazin-3(4H)-yl)ethyl]butanoic acid]
pIC50 (MMP-13): 4.52
pIC50 (MMP-16): < 4.40
pIC50 (MMP-1): < 4.40
pIC50 (MMP-3): < 4.40

O=C(CC(CCn1nnc2ccccc2c1=O)C(=O)O)c1noc2cc(OCc3cccnc3)ccc12 (racemic) [Example 148, (+/−)-4-Oxo-2-[2-(4-oxo-1,2,3-benzotriazin-3(4H)-yl)ethyl]-4-[6-(pyridin-3-ylmethoxy)-1,2-benzoxazol-3-yl]butanoic acid]
pIC50 (MMP-13): 6.30
pIC50 (MMP-16): < 4.40
pIC50 (MMP-1): < 4.40
pIC50 (MMP-3): 5.04

O=C(CC(CCn1nnc2ccccc2c1=O)C(=O)O)c1cc2cc(OCC3CCOCC3)ccc2o1 (racemic) [Example 5, (+/−)-4-Oxo-2-[2-(4-oxo-1,2,3-benzotriazin-3(4H)-yl)ethyl]-4-[5-(tetrahydro-2H-pyran-4-ylmethoxy)-1-benzofur-2-yl]butanoic acid]
pIC50 (MMP-13): 4.89
pIC50 (MMP-16): < 4.40
pIC50 (MMP-1): < 4.40
pIC50 (MMP-3): < 4.40

O=C(CC(CCn1nnc2ccccc2c1=O)C(=O)O)c1coc2cc(OCC3CCCCC3)ccc12 (single isomer, unassigned; (+)) [Example 82, (+)-4-[6-(Cyclohexylmethoxy)-1-benzofur-3-yl]-4-oxo-2-[2-(4-oxo-1,2,3-benzotriazin-3(4H)-yl)ethyl]butanoic acid]
pIC50 (MMP-13): 5.89
pIC50 (MMP-16): < 4.40
pIC50 (MMP-1): < 4.40
pIC50 (MMP-3): 4.80

Reference: patent US20170121315A1, “HETEROBICYCLICALLY SUBSTITUTED 4-OXOBUTANE ACID DERIVATIVES AND USE THEREOF” (priority 2014, published 2017)
